Where a name gives a salt, the structure may show the parent alone. Read-outs that look alike come from different tables or passages of the source.
Experiments:
[1] = target: KRAS protein containing G12D mutation (Homo sapiens (Human), UniProt P01116, G12D); test: SOS-catalyzed nucleotide exchange assay (GNE), TR-FRET; type: biochemical; settings: biotinylated KRAS G12D, SOS and GTP, 60-minute incubation
Experimental: Compounds are added to this complex and then after a 60-minute incubation time the mixture is treated with SOS and unlabeled GTP. Small molecule inhibitors stabilize the Bodipy-GDP complex whereas the untreated protein rapidly exchanges Bodipy-GDP for unlabeled GTP resulting in reduced TR-FRET signal.
This solution is referred to as biotinylated KRAS G12D stock solution.

[2] = test system: AsPC-1 cells containing homozygous KRAS-G12D activating mutation; test: Cellular phospho-ERK assay with 10% FBS (Examples 107a-256); type: cell-based
Experimental: 5% CO2 for 2 hours. […] Assay plates were read on a EnVision Multimode Plate Reader (PerkinElmer) and the ratio of p-Erk vs total Erk in each well was used as the final readout.

[3] = read-out: IC50 (nM) pERK (cell with FBS 10%), AsPC-1 cells, 10% fetal bovine serum, 2 hours, ratio of p-Erk vs total Erk
[4] = Homo sapiens, ASPC1, 2 h, read-out: IC50 (nM) pERK (cell with FBS 10%), AsPC-1 cells, 10% fetal bovine serum, 2 hours, ratio of p-Erk vs total Erk

Chain of KRAS protein containing G12D mutation (P01116 other isoform, or with tags, fused parts or gaps G12D (already in the parent)): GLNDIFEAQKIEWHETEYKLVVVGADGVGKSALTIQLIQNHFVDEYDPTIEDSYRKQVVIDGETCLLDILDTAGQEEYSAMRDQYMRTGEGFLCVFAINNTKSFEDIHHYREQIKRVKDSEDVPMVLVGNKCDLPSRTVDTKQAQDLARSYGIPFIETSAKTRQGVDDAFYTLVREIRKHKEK

## CCC(=O)Oc1cc(-c2c(F)cc3c(N4CC5CC[C@@](C)(C4)N5)nc(OC[C@@]45CCCN4C[C@H](F)C5)nc3c2F)c2c(Cl)cccc2c1 (single isomer, unassigned) [Ex. 162b]
[1]
  IC50: 495 nM
[2]; [3]
  IC50: 2390 nM

## C#Cc1cccc2scc(-c3c(F)cc4c(N5CC6CC[C@@](C)(C5)N6)nc(OCC5(CN6CCOCC6)CC5)nc4c3F)c12 (single isomer, unassigned) [Ex. 147a]
[1]
  IC50: 400 nM
[2]; [4]
  IC50: 16600 nM

## C[C@]12CC[C@H](CN(c3nc(OC[C@@]45CCCN4C[C@H](F)C5)nc4c(F)c(-c5cc(O)cc(Cl)c5Cl)c(F)cc34)C1)N2 (single isomer, unassigned) [Ex. 129b, HCl]
[1]
  IC50: 14.1 nM
[2]; read-out: IC50 (nM) pERK (cell with FBS 10%), AsPC-1 cells, 10% fetal bovine serum, 2 hours, ratio of p-Erk vs total Erk, HCl
  IC50: 3010 nM

## Nc1cc(F)c(C(F)(F)F)c(-c2c(F)cc3c(N4CC5CCC(C4)N5)nc(OC[C@@]45CCCN4C[C@H](F)C5)nc3c2F)c1F (single isomer, unassigned) [Ex. 145a]
[1]
  IC50: 1270 nM
[2]; [3]
  IC50: 19400 nM

## CCc1cccc2cc(O)cc(-c3c(F)cc4c(N5CC6CC[C@@](C)(C5)N6)nc(OC[C@@]56CCCN5C[C@H](F)C6)nc4c3F)c12 (single isomer, unassigned) [Ex. 178b]
[1]
  IC50: 210 nM
[2]; [3]
  IC50: 4580 nM

## [2H]c1c([2H])c(C#C)c2c(-c3c(F)cc4c(N5C[C@H]6CC[C@@](C)(C5)N6)nc(OC[C@@]56CCCN5C[C@H](F)C6)nc4c3F)c([2H])c([2H])c([2H])c2c1[2H] [compound 241, 7-(8-ethynylnaphthalen-1-yl-2,3,4,5,6,7-d6)-6,8-difluoro-2-(((2R,7aS)-2-fluorotetrahydro-1H-pyrrolizin-7a(5H)-yl)methoxy)-4-((1S,5R)-1-methyl-3,8-iazabicyclo[3.2.1]octan-3-yl)quinazoline, 2TFA]
[1]
  IC50: 8.63 nM
[2]; [4]
  IC50: 1760 nM

## C#Cc1cccc2cc(O)c(Cl)c(-c3c(F)cc4c(N5CC6CC[C@@](C)(C5)N6)nc(OC[C@@]56CCCN5C[C@H](F)C6)nc4c3F)c12 (single isomer, unassigned) [Ex. 143b]
[1]
  IC50: 74.5 nM
[2]; [3]
  IC50: 2500 nM

## Cc1cc(N)nc(-c2c(Cl)cc3c(N4CC5CC(O)C(C4)N5)nc(OC[C@@]45CCCN4C[C@H](F)C5)nc3c2F)c1C(F)(F)F (single isomer, unassigned) [249b]
[1]
  IC50: 1.52 nM
[2]; [4]
  IC50: 360 nM

## Cc1cc(N)nc(-c2c(Cl)cc3c(N4C[C@H]5CC[C@@H](C4)N5)nc(OC[C@@]45CCCN4C[C@H](F)C5)nc3c2F)c1C(F)(F)F [Ex. 228b, 6-(4-((1R,5S)-3,8-diazabicyclo[3.2.1]octan-3-yl)-6-chloro-8-fluoro-2-(((2R,7aS)-2-fluorotetrahydro-1H-pyrrolizin-7a(5H)-yl)methoxy)quinazolin-7-yl)-4-methyl-5-(trifluoromethyl)pyridin-2-amine]
[1]
  IC50: 2.43 nM
[2]; Homo sapiens, ASPC1, 2 h, read-out: IC50 (nM) pERK (cell with FBS 10%)
  IC50: 64.4 nM

## C[C@]12CCC(CN(c3nc(OC[C@@]45CCCN4C[C@H](F)C5)nc4c(F)c(-c5cccc6cccc(Cl)c56)c(F)cc34)C1)N2 (mixture of isomers) [Ex. 212, 7-(8-chloronaphthalen-1-yl)-6,8-difluoro-2-(((2R, 7aS)-2-fluorotetrahydro-1H-pyrrolizin-7a(5H)-yl)-methoxy)-4-((1S,5R)-1-methyl-3,8-diazabicyclo-[3.2.1]octan-3-yl)quinazoline, 2TFA]
[1]
  IC50: 180 nM
[2]; [4]
  IC50: 9060 nM

## C[C@]12CC[C@H](CN(c3nc(OCC45CNCC4C5)nc4c(F)c(-c5cc(O)cc6cccc(Cl)c56)c(F)cc34)C1)N2 (mixture of isomers) [Ex. 165, 4-(2-((3-azabicyclo-[3.1.0]hexan-1-yl)-methoxy)-6,8-difluoro-4-((1S,5R)-1-methyl-3,8-diazabicyclo[3.2.1]-octan-3-yl)quinazolin-7-yl)-5-chloronaph-thalen-2-ol, TFA]
[1]
  IC50: 149 nM
[2]; [4]
  IC50: 15400 nM

## C[C@]12CCC(CN(c3nc(OC[C@]4(CN5CCC(CO)C5)CC4(F)F)nc4c(F)c(-c5cc(O)cc6cccc(Cl)c56)c(F)cc34)C1)N2 (mixture of isomers) [Ex. 218, 5-chloro-4-(2-(((1R)-2,2-difluoro-1-((3-(hydroxymethyl)pyrrolidin-1-)-methyl)cyclopropyl)methoxy)-6,8-difluoro-4-((1S,5R)-1-methyl-3,8-diazabicyclo[3.2.1]octan-3-yl)quinazolin-7-yl)naphthalen-2-ol]
[1]
  IC50: 6.54 nM
[2]; [4]
  IC50: 1550 nM

## COCCNC[C@@]1(COc2nc(N3C[C@H]4CC[C@@](C)(C3)N4)c3cc(F)c(-c4c(C(F)(F)F)c(C)cc5[nH]ncc45)c(F)c3n2)CC1(F)F [compound 205, (1S,5R)-3-(2-(((R)-2,2-difluoro-1-(((2-methoxyethyl)amino)methyl)cyclopropyl)methoxy)-6,8-difluoro-7-(6-methyl-5-(trifluoromethyl)-1H-indazol-4-yl)quinazolin-4-yl)-1-methyl-3,8-diazabicyclo[3.2.1]octan-8-ium 2,2,2-trifluoroacetate]
[1]
  IC50: 93.9 nM
[2]; [4]
  IC50: 9380 nM

## C#Cc1cccc2cc(O)c(C)c(-c3c(F)cc4c(N5CC6CC[C@@](C)(C5)N6)nc(OC[C@@]56CCCN5C[C@H](F)C6)nc4c3F)c12 (single isomer, unassigned) [Ex. 204b]
[1]
  IC50: 23.4 nM
[2]; [3]
  IC50: 443 nM

## C[C@]12CCC(CN(c3nc(OC[C@]4(CN[C@H]5C[C@@H](O)C5)CC4(F)F)nc4c(F)c(-c5cc(O)cc6cccc(Cl)c56)c(F)cc34)C1)N2 (single isomer, unassigned) [Ex. 216a]
[1]
  IC50: 6.65 nM
[2]; [3]
  IC50: 3090 nM

## Cc1cc2[nH]ncc2c(-c2c(F)cc3c(N4C[C@H]5CC[C@@](C)(C4)N5)nc(OC[C@@]45CCCN4C[C@H](F)C5)nc3c2F)c1OC(F)(F)F (single isomer, unassigned) [Ex. 126b]
[1]
  IC50: 67.9 nM
[2]; [3]
  IC50: 3460 nM

## C#Cc1cccc2nc(N)cc(-c3c(F)cc4c(N5CC6CCC(C5)N6)nc(OC[C@@]56CCCN5C[C@H](F)C6)nc4c3F)c12 (single isomer, unassigned) [Ex. 203a]
[1]
  IC50: 380 nM
[2]; [3]
  IC50: 3020 nM

## C[C@]12CCC(CN(c3nc(OC[C@@]45CCCN4C[C@H](F)C5)nc4c(F)c(-c5cc(O)cn6ncc(Cl)c56)c(F)cc34)C1)N2 (single isomer, unassigned) [Ex. 230a, TFA]
[1]
  IC50: 30.9 nM
[2]; read-out: IC50 (nM) pERK (cell with FBS 10%), AsPC-1 cells, 10% fetal bovine serum, 2 hours, ratio of p-Erk vs total Erk, TFA
  IC50: 1450 nM

## CC(Oc1nc(N2C[C@H]3CC[C@@](C)(C2)N3)c2cc(F)c(-c3cc(O)cc4cccc(Cl)c34)c(F)c2n1)[C@]1(C)CCCN1 (mixture of isomers) [Ex. 164, 5-chloro-4-(6,8-difluoro-4-((1S,5R)-1-methyl-3,8-diaza-bicyclo-[3.2.1]octan-3-yl)-2-(1-((S)-2-methyl-pyrrolidin-2-yl)ethoxy)-quinazolin-7-yl)naph-thalen-2-ol, TFA]
[1]
  IC50: 562 nM
[2]; [4]
  IC50: 29300 nM

## C[C@]12CCC(CN(c3nc(OCC45CCCN4CC(C(F)F)C5)nc4c(F)c(-c5cc(O)cc6cccc(Cl)c56)c(F)cc34)C1)N2 (single isomer, unassigned) [Ex. 173-1a]
[1]
  IC50: 8.43 nM
[2]; [3]
  IC50: 1570 nM

## C#Cc1cccc2cccc(-c3c(F)cc4c(N5CC6CC[C@@](C)(C5)N6)nc(OC[C@@]56CCCN5C[C@H](F)C6)nc4c3F)c12 (single isomer, unassigned) [Ex. 211b]
[1]
  IC50: 7.41 nM
[2]; [4]
  IC50: 2010 nM

## C[C@]12CC[C@H](CN(c3nc(OC[C@@]45CCCN4C[C@H](F)C5)nc4c(F)c(-c5cncc6cccc(Cl)c56)c(F)cc34)C1)N2 (single isomer, unassigned) [Ex. 167]
[1]
  IC50: 414 nM
[2]; [4]
  IC50: 8440 nM

## Nc1cc(-c2c(F)cc3c(N4CC5CCC(C4)N5)nc(OC[C@@]45CCCN4C[C@H](F)C5)nc3c2F)c2c(Cl)cccc2n1 (single isomer, unassigned) [Ex. 231b]
[1]
  IC50: 38.4 nM
[2]; [3]
  IC50: 326 nM

## COCCN(C)C[C@@]1(COc2nc(N3CC4CC[C@@](C)(C3)N4)c3cc(F)c(-c4c(C(F)(F)F)c(C)cc5[nH]ncc45)c(F)c3n2)CC1(F)F [Ex. 223, (1S,5R)-3-(2-(((R)-2,2-difluoro-1-(((2-methoxyethyl)(methyl)amino)-methyl)cyclopropyl)methoxy)-6,8-difluoro-7-(6-methyl-5-(trifluorometh-yl)-1H-indazol-4-yl)quinazolin-4-yl)-1-methyl-3,8-diazabicyclo[3.2.1]-ocan-8-ium 2,2,2-trifluoroacetate]
[1]
  IC50: 425 nM
[2]; [4]
  IC50: 27300 nM

## CCc1cccc2cc(O)cc(-c3c(F)cc4c(N5CC6CC[C@@](C)(C5)N6)nc(OC[C@@]56CCCN5C[C@H](F)C6)nc4c3F)c12 (single isomer, unassigned) [Ex. 178a]
[1]
  IC50: 1.73 nM
[2]; [3]
  IC50: 108 nM

## C[C@]12CC[C@H](CN(c3nc(OCC4(CN5CCCC(O)(C(F)(F)F)C5)CC4)nc4c(F)c(-c5cc(O)cc6cccc(Cl)c56)c(F)cc34)C1)N2 (mixture of isomers) [Ex. 207, rac-1-((1-(((7-(8-chloro-3-hydroxynaphthalen-1-yl)-6,8-difluoro-4-((1S,5R)-1-methyl-3,8-diazabicyclo-[3.2.1]octan-3-yl)quinazolin-2-yl)oxy)methyl)cyclo-propyl)methyl)-3-trifluoromethyl)piperidin-3-ol]
[1]
  IC50: 767 nM
[2]; [3]
  IC50: 30000 nM
